This is an account of results in paper PMC5442318, “Hundreds of dual-stage antimalarial molecules discovered by a functional gametocyte screen” (Nature Communications, 2017).

Each structure is given as a SMILES string. Where two headings read alike, the source gives them in different places.

One data set has as its system HepG2 cells. In words: HepG2 cytotoxicity assay. It counts as cell-based. Put shortly: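 Luminescent read-out (CellTiter-Glo) taken 10 min after reagent addition at RT; plates and reagent pre-equilibrated 30 min at RT.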
Data set [1] relates to P. falciparum stage V female gametocytes. In words: P. falciparum female gametocyte activation assay (Pf FGAA), 24 h or 48 h preincubation, Pfs25 expression readout. As to conditions: mean, read-out: Gametocytes mean Pf FGAA IC50. The format is cell-based, Plasmodium falciparum NF54. Put shortly:
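Female activation, triggered by xanthurenic acid and cooling, was scored by imaging Cy3-labelled anti-Pfs25 female gametes after 24 h at 26 °C. Beforehand, purified NF54 stage V gametocytes had been incubated with compound for either 24 h or 48 h (37 °C, 3% O2). Values are pIC50 from full-curve regression.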

Data set [2] deals with P. falciparum stages IV–V gametocytes. Nature of the data set: Gametocytocidal ATP-depletion assay (gametocyte ATP bioluminescence). The format is cell-based, Plasmodium falciparum. Put shortly:
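Read-out is luciferase luminescence of parasite ATP (BacTiter-Glo), standing in for viability. Double-purified mature stage IV–V gametocytes, 12,500 per well, were exposed 48 h at 37 °C in low-O2 gas; screening concentration 2 μM.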

Data set [3] concerns P. falciparum asexual blood stages. As to conditions: read-out: Pf Asexual blood stages XC50, cited from earlier work.
Setting [4] is: P. falciparum female gametocytes.
The mark [5] stands for this setting: TCAMS asexual blood stage data, ref 1 (Gamo, F. J. et al., Nature 465, 305-310, 2010).
Setting [6] is: TCAMS data, ref 1 (Gamo et al., 2010).
Where [7] appears, read: P. falciparum female gametocyte activation assay.

With `O=C(Nc1cc(C(F)(F)F)cc(C(F)(F)F)c1)Nc1ccc(Cl)c(Cl)c1` [TCMDC-125592], the “HepG2 cells mean TOX50” value in the data set with HepG2 cells (HepG2 cells; mean) worked out at 3.07 µM. The figures for the IC50 in data set [1] (setting [4]) and in data set [3] (setting [5]) were 1430 nM and 240 nM, respectively. For the same compound, in data set [2], the “Gametocytes mean ATP inhibition at 2µM” value is on record as -6.96%.
As for `Cc1c2ccncc2c(C)c2c1[nH]c1cc(Cc3ccccc3)c(O)cc12` [TCMDC-132053], the “HepG2 cells mean TOX50” value in the data set on HepG2 cells (HepG2 cells; mean) is reported as 1.23 µM. Also, the IC50 in data set [1] (setting [4]) was 1090 nM; in data set [3] (setting [5]), 150 nM. The “Gametocytes mean ATP inhibition at 2µM” value in data set [2] is reported as -3.89%.
Regarding `C=CCC1OC(=O)c2cc(OC)cc(OC)c21` (stereo not shown) [TCMDC-138677], the “HepG2 cells mean TOX50” value in the data set on HepG2 cells (mean) was 2.29 µM. Moreover, the IC50 is 360 nM in data set [1] and 340 nM in data set [3] (setting [6]). Further, the “Gametocytes mean ATP inhibition at 2µM (%)” value in data set [2] amounted to 95.50%.
On to `CN(C)CCCOc1ccc(CN2CCC(c3c[nH]c4ccc(NCC5CCCCC5)cc34)CC2)cc1.O=C(O)C(F)(F)F` [TCMDC-140737], for which the “HepG2 cells mean TOX50” value in the data set with HepG2 cells (mean) is on record as 5.48 µM. In addition, the IC50 in data set [1] was 560 nM; in data set [3] (setting [6]), 680 nM. Moreover, the “Gametocytes mean ATP inhibition at 2µM (%)” value in data set [2] was -13.51%.
Take `C=CCN(C(=O)c1ccc(Cl)c([N+](=O)[O-])c1)c1nc(-c2ccccc2)cs1` [TCMDC-124436]: in the data set on HepG2 cells (HepG2 cells; mean), the “HepG2 cells mean TOX50” value was more than 100 µM. Also, the results for the IC50 in data set [1] (setting [4]) and in data set [3] (setting [5]) were 130 nM and 400 nM, respectively. For the same compound, the “Gametocytes mean ATP inhibition at 2µM” value in data set [2] is recorded as 100.64%.
On to `CC(Cc1ccc(NS(=O)(=O)c2ccc(CC(C)NCCc3cccc(Cl)c3)cc2)cc1)NCCc1cccc(Cl)c1` (stereo not shown) [TCMDC-139797], for which the “HepG2 cells mean TOX50” value in the data set on HepG2 cells (mean) was found to be 4.37 µM. The IC50 was 1840 nM in data set [1] and 770 nM in data set [3] (setting [6]). Moreover, in data set [2], the “Gametocytes mean ATP inhibition at 2µM (%)” value is on record as -2.49%.
Take `Nc1ccc2[nH]cc(C3CCN(CCC4CCN(C(=O)/C=C/c5ccc(Cl)c(Cl)c5)CC4)CC3)c2n1` [TCMDC-140062]: the “HepG2 cells mean TOX50” value in the data set on HepG2 cells (mean) turned out to be 8.13 µM. Also, the IC50 was 1290 nM in data set [1] and 740 nM in data set [3] (setting [6]). Also, the “Gametocytes mean ATP inhibition at 2µM (%)” value in data set [2] is listed as -11.87%.
As to `O=C(O)C(F)(F)F.c1cc(CN2CCC(CCN3CCCCC3)CC2)cc(-c2csc(-c3nc4ccccc4[nH]3)c2)c1` [TCMDC-133919], the “HepG2 cells mean TOX50” value in the data set with HepG2 cells (HepG2 cells; mean) worked out at 6.04 µM. Further, the figures for the IC50 in data set [1] (setting [4]) and in data set [3] (setting [5]) were 2110 nM and 140 nM, respectively. For the same compound, the “Gametocytes mean ATP inhibition at 2µM” value in data set [2] is recorded as 3.61%.
Take `COc1ccc(CNC2Cc3ccccc3C2)cc1-c1ccc(S(=O)(=O)NCCN2CCCC2)s1.O=C(O)C(F)(F)F` [TCMDC-132258]: the “HepG2 cells mean TOX50” value in the data set on HepG2 cells (HepG2 cells; mean) is reported as 5.31 µM. The IC50 in data set [1] (setting [4]) was 1390 nM; in data set [3] (setting [5]), 190 nM. The “Gametocytes mean ATP inhibition at 2µM” value in data set [2] is given as 59.91%.
`CN1CCN(CCNc2c3ccccc3nc3c2ccc2ccccc23)CC1.Cl` [TCMDC-137723]: in the data set on HepG2 cells (mean), the “HepG2 cells mean TOX50” value turned out to be 5.07 µM. The IC50 in data set [1] is 3490 nM; in data set [3] (setting [6]), 610 nM. For the same compound, the “Gametocytes mean ATP inhibition at 2µM (%)” value in data set [2] is 67.71%.
`C[C@H](Cc1ccc(OCCCCCOc2ccc(C[C@@H](C)NC[C@H](O)c3cccc(Cl)c3)cc2)cc1)NC[C@H](O)c1cccc(Cl)c1.Cl` [TCMDC-131563]: the “HepG2 cells mean TOX50” value with HepG2 cells (HepG2 cells; mean) is recorded as 2.11 µM. Besides, the IC50 is 960 nM in data set [1] (setting [4]) and 190 nM in data set [3] (setting [5]). For the same compound, the “Gametocytes mean ATP inhibition at 2µM” value in data set [2] is on record as 21.40%.
In the case of `CC(C)(C)c1ccc(CN2CCC(CNC(=O)c3cc(-c4cccc(F)c4)cs3)C2)cc1.O=C(O)C(F)(F)F` (stereo not shown) [TCMDC-134444], the “HepG2 cells mean TOX50” value with HepG2 cells (HepG2 cells; mean) was determined as 6.61 µM. For the same compound, the results for the IC50 in data set [1] (setting [4]) and in data set [3] (setting [5]) were 1320 nM and 900 nM, respectively. The “Gametocytes mean ATP inhibition at 2µM” value in data set [2] is listed as 0.99%.
In the case of `Cl.c1ccc2c(NCCCCCCCCCNc3ccnc4ccccc34)ccnc2c1` [TCMDC-137750], the “HepG2 cells mean TOX50” value in the data set with HepG2 cells (mean) worked out at 1.50 µM. The figures for the IC50 in data set [1] and in data set [3] (setting [6]) were 850 nM and 120 nM, respectively. In addition, the “Gametocytes mean ATP inhibition at 2µM (%)” value in data set [2] was found to be 35.04%.
Take `CCCCN(CCCC)CCCCNc1c2ccc(Cl)cc2nc2ccc(OC)cc12.Cl` [TCMDC-137460]: in the data set on HepG2 cells (mean), the “HepG2 cells mean TOX50” value is listed as 4.73 µM. In addition, the IC50 in data set [1] was 1970 nM; in data set [3] (setting [6]) it was 180 nM. The “Gametocytes mean ATP inhibition at 2µM (%)” value in data set [2] is recorded as 11.49%.
Regarding `CC1(C)CC(NCCCCCCCOc2ccc(OCc3ccccc3)cc2)CC(C)(C)N1.Cl` [TCMDC-138958], the “HepG2 cells mean TOX50” value in the data set on HepG2 cells (mean) is on record as 2.75 µM. For the same compound, the IC50 in data set [1] was 1230 nM; in data set [3] (setting [6]), 830 nM. In addition, the “Gametocytes mean ATP inhibition at 2µM (%)” value in data set [2] worked out at 38.17%.
In the case of `Cc1c(N=O)cc(C(C)(C)C)c(O)c1C(=O)Nc1ccc([N+](=O)[O-])cc1Cl` [TCMDC-142233], the “HepG2 cells mean TOX50” value in the data set with HepG2 cells (mean; HepG2 cells) was determined as 1.78 µM. The IC50 is 1170 nM in data set [1] (setting [7]) and 770 nM in data set [3] (setting [5]). For the same compound, the “Gametocytes mean ATP inhibition at 2µM” value in data set [2] is -7.78%.
Take `CCc1ccc(C2CCN(CCCCNC(=O)c3ccc(NC(=O)c4ccc(Cl)cc4)cc3)CC2)c(OCCO)c1` [TCMDC-138703]: in the data set on HepG2 cells (mean), the “HepG2 cells mean TOX50” value is 5.37 µM. Besides, the IC50 in data set [1] is 2250 nM; in data set [3] (setting [6]) it was 1390 nM. In addition, the “Gametocytes mean ATP inhibition at 2µM (%)” value in data set [2] is -4.56%.
In the case of `Cc1cc(F)ccc1-c1nc(NCCCNCCc2ccccc2)nc2c1ccc(=O)n2-c1c(F)cccc1F.O=C(O)C(F)(F)F` [TCMDC-141804], the “HepG2 cells mean TOX50” value in the data set on HepG2 cells (mean; HepG2 cells) is recorded as 12.59 µM. Further, the figures for the IC50 in data set [1] (setting [7]) and in data set [3] (setting [5]) were 3610 nM and 190 nM, respectively. The “Gametocytes mean ATP inhibition at 2µM” value in data set [2] is recorded as 82.21%.
For the compound `Fc1ccc(NC(S)=NN=Cc2ccccn2)cc1` [TCMDC-125521], in the data set on HepG2 cells (HepG2 cells; mean), the “HepG2 cells mean TOX50” value is more than 100 µM. In addition, the IC50 is 27.1 nM in data set [1] (setting [4]) and 770 nM in data set [3] (setting [5]). The “Gametocytes mean ATP inhibition at 2µM” value in data set [2] is on record as 85.73%.
Consider `COc1ccc(NC(=O)c2ccc(OCCCCCCCOc3ccc(C(=O)Nc4ccc(OC)c(N5CCN(C)CC5)c4)cc3)cc2)cc1N1CCN(C)CC1.O=C(O)C(=O)O` [TCMDC-139007], for which the “HepG2 cells mean TOX50” value in the data set with HepG2 cells (mean) came to 4.43 µM. Further, the IC50 in data set [1] was 1410 nM; in data set [3] (setting [6]), 600 nM. In data set [2], the “Gametocytes mean ATP inhibition at 2µM (%)” value was -8.09%.
`Cc1sc2ncnc(Sc3nnc(N)s3)c2c1C` [TCMDC-124542]: the “HepG2 cells mean TOX50” value with HepG2 cells (HepG2 cells; mean) turned out to be 36.31 µM. Besides, the IC50 was 770 nM in data set [1] (setting [4]) and 400 nM in data set [3] (setting [5]). In data set [2], the “Gametocytes mean ATP inhibition at 2µM” value was determined as 30.31%.
Regarding `CCOc1cc2ccccc2cc1CNCCCCCCNCc1cc2ccccc2cc1OCC.CS(=O)(=O)O` [TCMDC-137940], the “HepG2 cells mean TOX50” value in the data set with HepG2 cells (mean) turned out to be 6.06 µM. Besides, the IC50 is 1290 nM in data set [1] and 980 nM in data set [3] (setting [6]). In data set [2], the “Gametocytes mean ATP inhibition at 2µM (%)” value was 2.59%.
On to `CC1(CCN2CCC(c3c[nH]c4cnccc34)CC2)CCCc2c(Br)cccc2C1=O.Cl` (stereo not shown) [TCMDC-141171], for which the “HepG2 cells mean TOX50” value in the data set on HepG2 cells (mean; HepG2 cells) is given as 5.25 µM. Also, the IC50 was 1730 nM in data set [1] (setting [7]) and 190 nM in data set [3] (setting [5]). Besides, the “Gametocytes mean ATP inhibition at 2µM” value in data set [2] is recorded as 10.47%.
For the compound `COc1cc2ccccc2cc1CCNCCCCNCCc1cc2ccccc2cc1OC.CS(=O)(=O)O` [TCMDC-137944], the “HepG2 cells mean TOX50” value in the data set with HepG2 cells (mean) is reported as 1.66 µM. The IC50 was 620 nM in data set [1] and 400 nM in data set [3] (setting [6]). For the same compound, the “Gametocytes mean ATP inhibition at 2µM (%)” value in data set [2] was 84.04%.
Regarding `COc1ccc(CCNCCCCCCNCCc2ccc(Cl)c3ccccc23)cc1OC.Cl` [TCMDC-131270], in the data set on HepG2 cells (HepG2 cells; mean), the “HepG2 cells mean TOX50” value was found to be 2.12 µM. The IC50 in data set [1] (setting [4]) and in data set [3] (setting [5]) was 580 nM throughout. In addition, the “Gametocytes mean ATP inhibition at 2µM” value in data set [2] is 67.75%.
